Test [1] concerns the target Serine/threonine-protein kinase mTOR (Homo sapiens, UniProt P42345). The experiment in a line: Selectivity interaction (KinomeScan (DiscoverX)) EUB0001619a MTOR. As to conditions: at 1 µM.
Test [2] has as its target T1, Casein kinase I isoform alpha-like (Homo sapiens) (UniProt Q8N752).
T1 sequence (whole entry): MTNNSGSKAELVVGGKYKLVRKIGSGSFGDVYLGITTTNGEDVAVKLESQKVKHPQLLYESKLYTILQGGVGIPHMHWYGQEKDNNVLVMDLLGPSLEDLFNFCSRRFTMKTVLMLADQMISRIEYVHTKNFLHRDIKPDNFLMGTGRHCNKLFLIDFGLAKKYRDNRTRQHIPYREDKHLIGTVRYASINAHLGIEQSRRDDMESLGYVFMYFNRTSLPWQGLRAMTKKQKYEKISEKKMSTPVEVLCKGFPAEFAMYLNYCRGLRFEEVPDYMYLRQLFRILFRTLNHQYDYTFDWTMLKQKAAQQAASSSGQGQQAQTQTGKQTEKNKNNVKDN
As to conditions: at 10 µM.

Test [3] addresses Tyrosine-protein kinase Lck (Homo sapiens, UniProt P06239). In words: Selectivity interaction (KinomeScan (DiscoverX)) EUB0000607a LCK. As to conditions: at 10 µM.
Test [4] has as its system Phosphatidylinositol 4,5-bisphosphate 3-kinase catalytic subunit alpha isoform (Homo sapiens), P42336 [M1043I]. The note with it: at 10 µM.
Test [5] addresses T2, Myotonin-protein kinase (Homo sapiens) (UniProt Q09013).
T2 sequence (whole entry): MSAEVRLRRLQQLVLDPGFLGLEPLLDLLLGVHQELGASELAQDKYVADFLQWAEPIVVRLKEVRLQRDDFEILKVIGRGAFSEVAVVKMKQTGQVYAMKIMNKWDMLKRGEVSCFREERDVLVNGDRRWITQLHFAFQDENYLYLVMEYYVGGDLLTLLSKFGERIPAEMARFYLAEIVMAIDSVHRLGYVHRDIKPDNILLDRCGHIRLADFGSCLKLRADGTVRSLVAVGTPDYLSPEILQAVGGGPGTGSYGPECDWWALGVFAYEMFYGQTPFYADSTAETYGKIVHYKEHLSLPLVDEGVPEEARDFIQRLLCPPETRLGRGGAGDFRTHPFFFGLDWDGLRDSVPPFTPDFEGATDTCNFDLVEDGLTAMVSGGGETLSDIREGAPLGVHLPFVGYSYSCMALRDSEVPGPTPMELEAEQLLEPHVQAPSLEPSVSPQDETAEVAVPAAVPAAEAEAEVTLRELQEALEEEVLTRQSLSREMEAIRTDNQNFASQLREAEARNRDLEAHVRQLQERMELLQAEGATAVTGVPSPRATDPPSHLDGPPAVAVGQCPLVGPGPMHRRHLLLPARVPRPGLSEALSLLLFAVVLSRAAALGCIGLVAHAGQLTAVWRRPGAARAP
The experiment in a line: Selectivity interaction (KinomeScan (DiscoverX)) EUB0000607a DMPK. The note with it: at 10 µM.

Test [6] has as its target Tyrosine-protein kinase JAK2 (Homo sapiens, UniProt O60674). The experiment in a line: Selectivity interaction (KinomeScan (DiscoverX)) EUB0000607a JAK2. The note with it: at 10 µM.
For test [7], the target named is 5'-AMP-activated protein kinase catalytic subunit alpha-1 (Homo sapiens, UniProt Q13131). In words: Selectivity interaction (Kinase panel (literature)) EUB0001199aCl PRKAA1. As to conditions: at 1 µM.
5'-AMP-activated protein kinase catalytic subunit alpha-1, sequence (Q13131 whole entry, looked up): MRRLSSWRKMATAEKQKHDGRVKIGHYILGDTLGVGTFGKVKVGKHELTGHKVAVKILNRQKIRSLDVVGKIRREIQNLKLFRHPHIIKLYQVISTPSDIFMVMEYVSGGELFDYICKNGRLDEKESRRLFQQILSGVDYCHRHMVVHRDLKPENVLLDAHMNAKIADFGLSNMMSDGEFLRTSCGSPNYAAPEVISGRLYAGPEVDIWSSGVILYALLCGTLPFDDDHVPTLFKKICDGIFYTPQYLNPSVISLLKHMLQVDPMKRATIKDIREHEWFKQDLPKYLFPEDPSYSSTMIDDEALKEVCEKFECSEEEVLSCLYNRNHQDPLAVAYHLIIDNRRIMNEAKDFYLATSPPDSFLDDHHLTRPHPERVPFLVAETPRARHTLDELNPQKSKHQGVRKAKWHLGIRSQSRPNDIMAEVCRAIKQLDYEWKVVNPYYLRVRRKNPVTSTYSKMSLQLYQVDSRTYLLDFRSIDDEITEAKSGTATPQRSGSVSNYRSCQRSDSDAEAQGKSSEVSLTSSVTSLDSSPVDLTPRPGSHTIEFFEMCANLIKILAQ
Test [8] concerns the target T3, Cytoplasmic tyrosine-protein kinase BMX (Homo sapiens) (UniProt P51813).
T3 sequence (whole entry): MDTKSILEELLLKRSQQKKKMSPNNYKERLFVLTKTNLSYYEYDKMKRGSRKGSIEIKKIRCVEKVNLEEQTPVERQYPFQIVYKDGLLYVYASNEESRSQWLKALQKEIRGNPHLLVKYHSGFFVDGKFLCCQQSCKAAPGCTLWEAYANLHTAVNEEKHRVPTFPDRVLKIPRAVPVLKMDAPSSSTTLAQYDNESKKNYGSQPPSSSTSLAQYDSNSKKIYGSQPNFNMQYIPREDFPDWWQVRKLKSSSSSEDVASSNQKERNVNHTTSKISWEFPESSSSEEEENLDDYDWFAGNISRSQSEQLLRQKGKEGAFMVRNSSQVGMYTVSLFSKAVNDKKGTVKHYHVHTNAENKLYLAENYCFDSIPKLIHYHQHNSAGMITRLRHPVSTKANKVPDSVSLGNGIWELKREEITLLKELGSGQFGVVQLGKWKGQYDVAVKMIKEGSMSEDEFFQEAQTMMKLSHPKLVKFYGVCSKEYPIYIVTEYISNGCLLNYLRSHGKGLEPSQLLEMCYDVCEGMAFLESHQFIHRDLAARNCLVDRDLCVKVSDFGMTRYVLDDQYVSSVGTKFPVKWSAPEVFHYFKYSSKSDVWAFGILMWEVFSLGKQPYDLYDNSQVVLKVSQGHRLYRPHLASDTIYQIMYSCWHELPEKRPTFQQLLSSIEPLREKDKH
In words: Selectivity interaction (Ambit KINOMEscan and KiNATiv profiling in Jurkat cells) EUB0000090b BMX. The note with it: at 1 µM. Format: cell-based.

Test [9] addresses T4, NUAK family SNF1-like kinase 1 (Homo sapiens) (UniProt O60285).
T4 sequence (whole entry): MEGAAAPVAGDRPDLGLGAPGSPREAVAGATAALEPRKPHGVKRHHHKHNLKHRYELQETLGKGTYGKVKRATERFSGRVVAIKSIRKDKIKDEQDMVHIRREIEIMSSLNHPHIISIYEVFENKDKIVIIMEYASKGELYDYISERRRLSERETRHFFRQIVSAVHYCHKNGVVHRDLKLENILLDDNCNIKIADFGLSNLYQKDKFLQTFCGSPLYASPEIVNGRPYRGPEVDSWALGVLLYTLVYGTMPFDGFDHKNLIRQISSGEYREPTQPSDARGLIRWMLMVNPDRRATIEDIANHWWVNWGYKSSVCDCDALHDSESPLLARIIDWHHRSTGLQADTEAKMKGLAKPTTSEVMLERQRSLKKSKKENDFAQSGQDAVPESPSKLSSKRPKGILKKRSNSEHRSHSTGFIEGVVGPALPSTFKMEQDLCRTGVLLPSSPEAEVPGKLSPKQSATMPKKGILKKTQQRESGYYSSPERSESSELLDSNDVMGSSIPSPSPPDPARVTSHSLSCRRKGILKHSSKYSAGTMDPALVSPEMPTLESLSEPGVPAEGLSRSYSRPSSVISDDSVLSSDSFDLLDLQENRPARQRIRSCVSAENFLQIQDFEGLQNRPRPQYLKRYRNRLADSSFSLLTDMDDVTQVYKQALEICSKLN
The experiment in a line: Selectivity interaction (Kinase panel (Carna Biosciences)) EUB0001542aTs NUAK1. The note with it: at 1 µM.

For test [10], the target named is Ribosomal protein S6 kinase alpha-1 (Homo sapiens, UniProt Q15418). In words: Selectivity interaction (KinomeScan (DiscoverX)) EUB0001079a RPS6KA1. As to conditions: at 1 µM.
Ribosomal protein S6 kinase alpha-1, sequence (Q15418 whole entry): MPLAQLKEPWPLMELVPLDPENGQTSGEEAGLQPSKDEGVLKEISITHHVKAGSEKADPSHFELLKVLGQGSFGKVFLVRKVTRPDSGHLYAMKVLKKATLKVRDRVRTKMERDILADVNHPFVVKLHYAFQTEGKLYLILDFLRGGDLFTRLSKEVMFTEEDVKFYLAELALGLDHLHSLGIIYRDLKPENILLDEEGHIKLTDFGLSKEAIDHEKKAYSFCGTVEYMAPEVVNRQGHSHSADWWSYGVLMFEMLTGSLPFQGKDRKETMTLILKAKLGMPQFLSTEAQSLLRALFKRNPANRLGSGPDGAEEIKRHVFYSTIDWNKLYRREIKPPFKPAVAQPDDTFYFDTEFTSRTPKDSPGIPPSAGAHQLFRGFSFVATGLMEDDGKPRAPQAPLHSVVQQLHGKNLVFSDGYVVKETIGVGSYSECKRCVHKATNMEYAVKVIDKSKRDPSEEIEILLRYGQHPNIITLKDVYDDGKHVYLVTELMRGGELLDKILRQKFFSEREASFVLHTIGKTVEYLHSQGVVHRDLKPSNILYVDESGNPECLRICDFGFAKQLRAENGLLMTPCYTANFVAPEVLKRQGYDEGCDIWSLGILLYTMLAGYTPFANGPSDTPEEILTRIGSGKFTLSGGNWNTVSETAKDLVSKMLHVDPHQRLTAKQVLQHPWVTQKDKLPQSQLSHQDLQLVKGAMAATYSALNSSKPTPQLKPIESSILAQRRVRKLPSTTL

Phosphatidylinositol 4,5-bisphosphate 3-kinase catalytic subunit alpha isoform (Homo sapiens), P42336 [M1043I], sequence (P42336 whole entry M1043I, canonical isoform): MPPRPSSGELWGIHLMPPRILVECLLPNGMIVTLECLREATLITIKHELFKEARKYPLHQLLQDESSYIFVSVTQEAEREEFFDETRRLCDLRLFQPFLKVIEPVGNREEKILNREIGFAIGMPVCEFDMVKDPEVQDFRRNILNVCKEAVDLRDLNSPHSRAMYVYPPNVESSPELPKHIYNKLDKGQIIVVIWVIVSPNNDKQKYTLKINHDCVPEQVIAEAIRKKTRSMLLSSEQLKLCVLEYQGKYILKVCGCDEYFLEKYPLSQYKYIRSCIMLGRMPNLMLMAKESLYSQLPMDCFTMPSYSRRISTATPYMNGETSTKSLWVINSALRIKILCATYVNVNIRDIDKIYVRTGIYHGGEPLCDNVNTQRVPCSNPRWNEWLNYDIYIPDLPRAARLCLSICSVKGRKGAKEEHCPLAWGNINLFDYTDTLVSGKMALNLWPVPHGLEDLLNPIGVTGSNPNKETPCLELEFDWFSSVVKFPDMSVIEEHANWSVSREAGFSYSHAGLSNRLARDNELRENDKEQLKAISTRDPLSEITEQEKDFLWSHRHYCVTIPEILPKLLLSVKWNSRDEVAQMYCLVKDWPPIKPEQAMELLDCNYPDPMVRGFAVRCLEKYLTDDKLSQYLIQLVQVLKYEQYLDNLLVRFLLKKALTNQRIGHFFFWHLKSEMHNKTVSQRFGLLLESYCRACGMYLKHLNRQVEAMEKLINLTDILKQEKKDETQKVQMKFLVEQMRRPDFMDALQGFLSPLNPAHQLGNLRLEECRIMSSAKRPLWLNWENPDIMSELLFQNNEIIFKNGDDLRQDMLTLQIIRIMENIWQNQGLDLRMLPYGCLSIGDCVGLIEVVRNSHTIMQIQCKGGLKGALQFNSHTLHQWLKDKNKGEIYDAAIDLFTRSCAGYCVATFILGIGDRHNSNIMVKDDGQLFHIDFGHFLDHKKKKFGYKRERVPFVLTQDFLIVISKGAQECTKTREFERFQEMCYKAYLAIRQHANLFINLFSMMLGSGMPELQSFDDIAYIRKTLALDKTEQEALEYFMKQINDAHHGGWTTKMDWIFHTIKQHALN
Tyrosine-protein kinase JAK2, sequence (O60674 whole entry): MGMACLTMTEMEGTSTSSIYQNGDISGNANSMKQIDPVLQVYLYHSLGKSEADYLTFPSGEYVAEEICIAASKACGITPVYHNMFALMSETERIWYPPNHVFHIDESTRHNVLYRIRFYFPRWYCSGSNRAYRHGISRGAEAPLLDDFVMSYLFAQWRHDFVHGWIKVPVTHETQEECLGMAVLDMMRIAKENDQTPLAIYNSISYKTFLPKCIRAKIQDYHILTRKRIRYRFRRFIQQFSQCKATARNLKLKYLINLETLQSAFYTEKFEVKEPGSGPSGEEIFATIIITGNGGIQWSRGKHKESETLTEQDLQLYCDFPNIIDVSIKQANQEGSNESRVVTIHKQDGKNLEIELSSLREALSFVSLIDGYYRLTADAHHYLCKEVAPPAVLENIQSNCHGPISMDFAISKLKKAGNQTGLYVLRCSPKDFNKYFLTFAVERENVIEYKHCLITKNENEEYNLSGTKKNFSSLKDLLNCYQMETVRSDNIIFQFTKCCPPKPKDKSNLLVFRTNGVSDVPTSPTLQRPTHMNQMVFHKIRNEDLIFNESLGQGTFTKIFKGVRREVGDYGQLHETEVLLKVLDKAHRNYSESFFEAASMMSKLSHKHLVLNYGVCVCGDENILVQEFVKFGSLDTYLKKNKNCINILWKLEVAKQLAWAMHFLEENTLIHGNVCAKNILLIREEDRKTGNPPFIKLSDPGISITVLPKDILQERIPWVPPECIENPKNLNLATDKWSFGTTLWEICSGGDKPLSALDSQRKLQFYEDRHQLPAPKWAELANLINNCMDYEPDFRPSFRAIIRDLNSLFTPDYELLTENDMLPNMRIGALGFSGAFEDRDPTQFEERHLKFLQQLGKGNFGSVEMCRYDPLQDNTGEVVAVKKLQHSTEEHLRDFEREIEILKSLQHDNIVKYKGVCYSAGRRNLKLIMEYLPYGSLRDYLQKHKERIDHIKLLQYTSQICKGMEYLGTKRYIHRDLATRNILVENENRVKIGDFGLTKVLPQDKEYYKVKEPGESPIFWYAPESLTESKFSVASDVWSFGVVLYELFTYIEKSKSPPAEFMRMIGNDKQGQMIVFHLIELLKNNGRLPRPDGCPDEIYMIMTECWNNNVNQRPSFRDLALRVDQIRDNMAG
Tyrosine-protein kinase Lck, sequence (P06239 2-509 limits assumed): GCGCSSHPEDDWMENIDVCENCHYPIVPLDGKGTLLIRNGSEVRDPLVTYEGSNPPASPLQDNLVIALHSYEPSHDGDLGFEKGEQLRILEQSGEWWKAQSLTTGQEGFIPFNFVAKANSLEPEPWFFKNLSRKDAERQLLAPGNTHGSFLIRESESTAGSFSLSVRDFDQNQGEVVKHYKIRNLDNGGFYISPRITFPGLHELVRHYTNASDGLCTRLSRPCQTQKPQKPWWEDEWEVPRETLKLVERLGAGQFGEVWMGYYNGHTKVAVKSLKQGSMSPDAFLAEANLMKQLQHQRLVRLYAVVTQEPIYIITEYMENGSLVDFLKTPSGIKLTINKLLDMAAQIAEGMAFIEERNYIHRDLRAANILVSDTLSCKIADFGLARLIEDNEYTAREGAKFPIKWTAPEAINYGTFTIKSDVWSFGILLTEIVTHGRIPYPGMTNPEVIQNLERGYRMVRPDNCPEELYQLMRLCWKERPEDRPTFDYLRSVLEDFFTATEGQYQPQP

In [1], `N#Cc1cccc(-c2c[nH]c3ncnc(N4CCOCC4)c23)c1` had a % of control of 58%. `CCN(CC)CCCCNc1ncc2cc(-c3cc(OC)cc(OC)c3)c(NC(=O)NC(C)(C)C)nc2n1` registered a % of control in [2] of 100%.

For the compound `CNC(=O)Nc1ccc(-c2nc(N3CC4CCC(C3)O4)c3cnn(C4CCC5(CC4)OCCO5)c3n2)cc1`, the % of control is 100% in test [3], 4.4% in test [4], 83% in test [5] and 100% in [6].

For `CN1Cc2nccc(-c3cn(C)nc3-c3ccc(F)cc3)c2C1=O`, the % of inhibition in [7] came to 3%. Turning to `CN(C)C/C=C/C(=O)Nc1ccc(C(=O)N2CCCC(Nc3ncc(Cl)c(-c4c[nH]c5ccccc45)n3)C2)cc1` (stereo not given), the % of control in [8] was determined as 95%. In test [9], `Cn1cc(Nc2nccc(N3CC4CCC(C3)N4C(=O)[C@@H]3CC3(F)F)n2)cn1` gave a % of inhibition of 60%. In [10], `Nc1cnc(N2CCc3cc(S(=O)(=O)Nc4c(F)cc(Cl)cc4F)cc(N4CCCC4=O)c32)nc1` [TP-020n] came in with a % of control of 93%.

Values taken from ChEMBL document CHEMBL5465560, “Selectivity Literature for EUbOPEN Chemogenomic Library” (2024).
